{"source": "paper PMC4712559", "about": "“Isolation and characterization of Bradykinin potentiating peptides from Agkistrodon bilineatus venom” (Proteome Science, 2016)", "target": "T1, Angiotensin converting enzyme from rabbit lung (Oryctolagus cuniculus, UniProt P12822)", "T1 construct": "Angiotensin converting enzyme from rabbit lung (A6778- 0.25 UN), was obtained from Sigma; purchased Sigma A6778; host or cells: rabbit lung tissue", "T1 sequence (P12822 34-1310)": "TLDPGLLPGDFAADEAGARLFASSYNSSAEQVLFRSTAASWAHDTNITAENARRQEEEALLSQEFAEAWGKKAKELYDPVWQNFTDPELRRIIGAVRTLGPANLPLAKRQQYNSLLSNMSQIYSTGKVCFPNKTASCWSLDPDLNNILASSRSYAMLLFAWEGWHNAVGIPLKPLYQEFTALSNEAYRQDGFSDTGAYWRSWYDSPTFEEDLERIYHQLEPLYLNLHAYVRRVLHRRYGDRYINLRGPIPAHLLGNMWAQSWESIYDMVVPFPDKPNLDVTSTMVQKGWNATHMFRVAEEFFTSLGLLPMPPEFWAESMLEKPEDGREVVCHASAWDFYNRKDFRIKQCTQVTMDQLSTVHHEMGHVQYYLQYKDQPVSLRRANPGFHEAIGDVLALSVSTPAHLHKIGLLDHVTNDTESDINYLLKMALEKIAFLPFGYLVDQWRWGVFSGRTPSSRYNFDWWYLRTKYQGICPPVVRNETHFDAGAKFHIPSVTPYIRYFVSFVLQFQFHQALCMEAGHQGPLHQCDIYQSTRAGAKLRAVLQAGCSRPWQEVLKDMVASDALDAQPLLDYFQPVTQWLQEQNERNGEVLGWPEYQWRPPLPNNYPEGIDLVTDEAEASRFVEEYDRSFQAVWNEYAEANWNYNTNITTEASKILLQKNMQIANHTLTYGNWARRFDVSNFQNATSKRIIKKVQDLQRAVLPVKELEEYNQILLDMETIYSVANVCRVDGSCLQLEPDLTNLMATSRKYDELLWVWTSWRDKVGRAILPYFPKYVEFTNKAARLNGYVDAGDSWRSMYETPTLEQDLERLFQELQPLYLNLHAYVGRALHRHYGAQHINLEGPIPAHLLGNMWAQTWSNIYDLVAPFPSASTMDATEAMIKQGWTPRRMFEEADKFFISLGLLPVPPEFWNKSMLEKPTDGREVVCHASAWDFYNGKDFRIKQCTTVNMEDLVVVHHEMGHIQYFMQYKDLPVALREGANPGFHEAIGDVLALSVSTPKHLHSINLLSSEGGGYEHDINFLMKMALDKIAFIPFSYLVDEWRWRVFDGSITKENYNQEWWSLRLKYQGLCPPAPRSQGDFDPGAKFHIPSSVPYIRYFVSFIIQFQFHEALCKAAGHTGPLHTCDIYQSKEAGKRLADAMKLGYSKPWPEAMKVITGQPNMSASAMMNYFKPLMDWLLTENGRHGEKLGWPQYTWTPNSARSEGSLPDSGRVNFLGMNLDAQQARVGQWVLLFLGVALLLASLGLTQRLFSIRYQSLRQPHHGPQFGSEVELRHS", "assay": "ACE inhibition by synthetic BPPs, fluorescence energy transfer assay with Abz-Phe-Arg-Lys(Dnp)-Pro-OH", "type": "biochemical", "conditions": "for ACE inhibition / IC 50, in words: qualitative comparison of the four synthesized peptides; for IC50: rabbit lung ACE, FRET substrate Abz-Phe-Arg-Lys(Dnp)-Pro-OH, Tris/NaCl/ZnCl2 buffer, pH 7.0, 10 min incubation at room temperature, λex 320 nm, λem 420 nm, 5 min, six serial dilutions 0.500-0.002 mM, 5 μl of dilution in assay, repeated five times", "description": "The snake venom of Agkistrodon bilineatus bilineatus, was obtained from Venom Supplies, Australia, and was placed at -20° till further use. The venom was collected from the snakes bred in the farms of Venom Supplies, Australia. All the solvents used were of HPLC grade and were obtained from Merck. The substrate Abz-Phe-Arg-Lys (Dnp)-Pro-OH for angiotensin converting enzyme was obtained from BACHEM. Angiotensin converting enzyme from rabbit lung (A6778- 0.25 UN), was obtained from Sigma. The synthesized peptides ZLWPRPQIPP, ZQWAQGRAPHPP, ZSAPGNEAIPP, ZNWPHPQIPP were purchased from China Peptide company, Shanghai, China. The peptides were 95 % pure, and were kept at -20° till use. The N-terminus of these synthetic peptide is pyroglutame (represented by Z), while the C-terminus is an amino acid with free carboxylic group.\nACE activities in the presence of venom peptides were determined by a fluorescence energy transfer assay using Abz-Phe-Arg-Lys (Dnp)-Pro-OH as a substrate. 1 mg of the substrate was weighed and dissolved in 1 ml DMSO. The exact concentration of the substrate was determined by taking four different volumes of the substrate stock solution, and constructing a standard curve spectrophometrically at 365 nm, using the molar extinction coefficient of the Dnp group ([…] = 17,300 M^−1 cm^−1), according to the Beer’s Lambert Law (A = εDnp x l x c). A stock solution of the enzyme was prepared by suspending 0.25 UN of ACE in 250 μl of the assay buffer (12.10 g Tris-base, 2.92 g NaCl and 1.36 mg ZnCl2 in 1 l of deionised water, pH to 7.0 adjusted with HCl).\nIn order to determine the IC 50 values of the synthesized peptides, a stock solution (10 mM) of each was prepared in the assay buffer. From the stock solutions, six serial dilutions were prepared for each peptide. The concentrations of the six dilutions were as follows, 0.500 mM, 0.167 mM, 0.056 mM, 0.019 mM, 0.006 mM and 0.002 mM respectively. In the final assay, 85 μl of the assay buffer, 2 μl of the enzyme stock solution, and 5 μl of the dilute peptide solution were added. The mixture was incubated for 10 min at room temperature. The reaction was started by adding 10 μl of the working solution of the substrate (20 μl of the stock +280 μl of the assay buffer). The same procedure was adopted using 5 μl of venom fractions instead of the synthetic peptides. Fluorescence measurements were made at λex = 320 nm and at λem = 420 nm, for 5 min each. These experiments were repeated five times to ensure accuracy of the results.", "note": "Where a SMILES comes first, the peptide text is derived from it.", "data": [{"smiles": "CC[C@H](C)[C@H](NC(=O)[C@H](CCC(N)=O)NC(=O)[C@@H]1CCCN1C(=O)[C@H](CCCNC(=N)N)NC(=O)[C@@H]1CCCN1C(=O)[C@H](Cc1c[nH]c2ccccc12)NC(=O)[C@H](CC(C)C)NC(=O)[C@@H]1CCC(=O)N1)C(=O)N1CCC[C@H]1C(=O)N1CCC[C@H]1C(=O)O", "note": "[Inhibitor 1 (P6)] (HELM PEPTIDE1{[Glp].L.W.P.R.P.Q.I.P.P}$$$$V2.0)", "values": [{"measurement": "ACE inhibition / IC 50, in words", "setting": "listed as ZLWPRPQXPP", "value": "strongest inhibitors"}, {"measurement": "ACE inhibition / IC 50, in words", "setting": "listed as peptide 6", "value": "low IC 50 values"}, {"measurement": "IC50", "value": 640, "unit": "nM"}]}, {"smiles": "C[C@H](NC(=O)[C@H](Cc1c[nH]c2ccccc12)NC(=O)[C@H](CCC(N)=O)NC(=O)[C@@H]1CCC(=O)N1)C(=O)N[C@@H](CCC(N)=O)C(=O)NCC(=O)N[C@@H](CCCNC(=N)N)C(=O)N[C@@H](C)C(=O)N1CCC[C@H]1C(=O)N[C@@H](Cc1c[nH]cn1)C(=O)N1CCC[C@H]1C(=O)N1CCC[C@H]1C(=O)O", "note": "[Inhibitor 2 (P7)] (HELM PEPTIDE1{[Glp].Q.W.A.Q.G.R.A.P.H.P.P}$$$$V2.0)", "values": [{"measurement": "ACE inhibition / IC 50, in words", "setting": "listed as ZQWAQGRAPHPP", "value": "low IC 50 value"}, {"measurement": "ACE inhibition / IC 50, in words", "setting": "listed as peptide 7", "value": "low IC 50 values"}, {"measurement": "IC50", "value": 3630, "unit": "nM"}]}, {"smiles": "CC[C@H](C)[C@H](NC(=O)[C@H](C)NC(=O)[C@H](CCC(=O)O)NC(=O)[C@H](CC(N)=O)NC(=O)CNC(=O)[C@@H]1CCCN1C(=O)[C@H](C)NC(=O)[C@H](CO)NC(=O)[C@@H]1CCC(=O)N1)C(=O)N1CCC[C@H]1C(=O)N1CCC[C@H]1C(=O)O", "note": "[Inhibitor 3 (P5)] (HELM PEPTIDE1{[Glp].S.A.P.G.N.E.A.I.P.P}$$$$V2.0)", "values": [{"measurement": "ACE inhibition / IC 50, in words", "value": "much higher value"}, {"measurement": "IC50", "value": 30000, "unit": "nM"}]}, {"smiles": "CC[C@H](C)[C@H](NC(=O)[C@H](CCC(N)=O)NC(=O)[C@@H]1CCCN1C(=O)[C@H](Cc1c[nH]cn1)NC(=O)[C@@H]1CCCN1C(=O)[C@H](Cc1c[nH]c2ccccc12)NC(=O)[C@H](CC(N)=O)NC(=O)[C@@H]1CCC(=O)N1)C(=O)N1CCC[C@H]1C(=O)N1CCC[C@H]1C(=O)O", "note": "[Inhibitor 4 (P3)] (HELM PEPTIDE1{[Glp].N.W.P.H.P.Q.I.P.P}$$$$V2.0)", "values": [{"measurement": "ACE inhibition / IC 50, in words", "setting": "listed as ZNWPHPQXPP", "value": "strongest inhibitors"}, {"measurement": "ACE inhibition / IC 50, in words", "setting": "listed as peptide 5", "value": "low IC 50 values"}, {"measurement": "IC50", "value": 760, "unit": "nM"}]}]}
